Columns and labels:
[1] = system: PMN; assay: cytosolic free calcium (fura-2) in PMN; assay type: cell-based, human; details: 1 to 500 nM; CaCl2 1.3 mM or EGTA 2 mM
Experimental: (§1) The concentration of cytosolic free calcium [Ca^2+]i was measured using the [Ca^2+]i indicator fura-2-acetoxymethyl ester (fura-2). […] The spectrofluorophotometer was programmed to shuttle between the two excitation wavelengths of 340 and 380 nm every 5 sec while keeping the emission wavelength of 505 nm. […] Background values were subtracted from all data. The intracellular Ca^2+ was calculated with the formula [[…] is KD of the fura-2 multiplied with the quotient of the fluorescence at 380 nm from the minimal and the maximal [Ca^2+]i fluorescence.

[2] = system: acetylhydrolase; assay: acetylhydrolase activity, kinetic constants; assay type: biochemical, human
Experimental: Acetylhydrolase activity was measured in lysates of resting platelets or platelets stimulated with thrombin (0.5 IU/ml, 1 min, 37° C.), in supernatants of thrombin-activated platelets with or without acid-treated (inactivation of acetylhydrolase) plasma and in native plasma. Samples were incubated for 10 min at 37° C. in the presence of 0.1 μCi [^3H]acetyl paf and concentrations of unlabeled paf varying from 5 to 35 μM. The microenvironment modulates the acetylhydrolase indicating the origin of plasma acetylhydrolase from activated platelets.

[3] = system: platelets; assay: paf-mediated platelet aggregation; assay type: cell-based; details: BSA […]; for EC50: Platelet, 0.05 h, 3 min aggregation
Experimental: (§2) Results are expressed as mean±S.D. or S.E. and statistics were performed using the “Mann Whitney” test (n=3, n=5 or n=6 as indicated).

[4] = biological target: T1, paf receptors on neutrophils (PMN) (Homo sapiens, UniProt P25105); assay: [^3H]paf binding to intact human neutrophils (PMN); details: for [^3H]paf binding: 20° C., 30 min
T1 construct: Neutrophils (PMN) were prepared from venous blood (40 ml) from normal donors; endogenous in cells; host or cells: intact neutrophils (PMN) from venous blood of normal donors
T1 sequence (P25105 whole entry): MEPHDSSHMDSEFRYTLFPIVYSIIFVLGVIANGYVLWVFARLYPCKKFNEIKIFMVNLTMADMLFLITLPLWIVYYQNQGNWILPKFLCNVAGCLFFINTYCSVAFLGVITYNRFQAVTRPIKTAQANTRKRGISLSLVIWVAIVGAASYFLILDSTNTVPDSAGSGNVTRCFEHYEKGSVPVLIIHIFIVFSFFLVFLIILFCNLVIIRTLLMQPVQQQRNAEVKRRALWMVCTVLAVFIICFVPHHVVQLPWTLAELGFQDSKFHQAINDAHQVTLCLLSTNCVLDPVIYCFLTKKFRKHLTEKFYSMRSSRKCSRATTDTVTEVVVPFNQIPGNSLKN
Experimental: (§3) Neutrophils (PMN) were prepared from venous blood (40 ml) from normal donors, anticoagulated with citric acid dextrose (7:1, v/v) was sedimented for 30 to 45 min in gelatin 0.3% final (Plasmagel®). Twenty ml of supernatant were layered on 10 ml Ficoll Hypaque (d=1.077) and centrifuged (400×g, 20 min, 20° C.). The cell pellet containing PMN (95%) was resuspended in 500 μl Tyrode's buffer (pH=7.4). Erythrocyte lysis was performed by adding 3 volumes of distilled water for 40 sec. followed by 1 volume NaCl (3.5%, w/v). PMN were then washed twice in Tyrode's buffer (centrifugation at 370×g at 20° C. for 10 min). Cell concentration was adjusted to 5×10^7 per ml.
(§4) Binding studies were performed using, for example, intact neutrophils (PMN) or intact human blood eosinophils. PMN (2.5×10^6) or eosinophils (2.5×10^5) were suspended in 500 μl Tyrode's buffer supplemented with 1.3 mM CaCl2, 1 mM MgCl2 and 0.25% (v/v) fatty acid-free bovine serum albumin (BSA, w/v) were incubated with [^3H]paf (0.325-6.5 nM) either for 30 min at 20° C. or for 20 hrs at 4° C. Non-specific binding was assessed with the unlabeled ligands either paf (500 nM) or the receptor antagonist WEB 2086 (1 μM or 400 nM).
In a second set of experiments, [^3H]paf binding was performed by adding 3.25 nM [^3H]paf to PMN, simultaneously with low dose (5 to 50 nM) of paf, lyso paf, the enantiomer of paf or 2-lyso phosphatidylcholine (LPC) for 30 min at 20° C. [^3H]paf binding was also measured in the presence of the phorbol ester 4-phorbol-12-myristate-13-acetate (PMA, 1 to 16 nM) either added simultaneously with [^3H]paf or preincubated 15 min at 37° C. previously. […] After the binding procedure, cells were separated from their suspending medium by filtration in a millipore vacuum system with GF/C filters. Filters were washed with 10 ml Tyrode's buffer at 4° C. and radioactivity was assessed by scintillation. Cell-bound radioactivity on the filters after subtraction of blanks (filter-bound radioactivity in the absence of cells) was expressed in fmol [^3H]paf bound per 2.5×10^6 PMN or 2.5×10^5 eosinophils.

[5] = system: eosinophils; assay: paf metabolism by intact eosinophils; assay type: in vitro ADME, human; details: binding conditions
Experimental: Cells were then separated by vacuum filtration and phospholipids were extracted. Briefly, filters were placed in 500 μl water. […] High pressure liquid chromatography (HPLC) was performed using standard procedure with dichloromethane/methanol/water (50:50.5, by vol) and eluted with a flow rate of 1 ml/min. The radioactivity was measured in the fractions after subtraction of the background values.

[6] = system: human platelets; assay: acetylhydrolase release from activated platelets; assay type: cell-based; details: Thrombin 0.5 IU/ml; for acetylhydrolase release: Paf 500 nM
Experimental: as §2

[7] = system: U 937 cells; assay: cAMP levels of U 937 cells; assay type: cell-based
Experimental: U 937 cells were grown in stationary suspension culture in RPMI 1640 containing 10% fetal calf serum (FCS) and 2 mM L-glutamine at 37° C. in a humidified atmosphere of 5% CO2 and 95% air. The cells were diluted with fresh medium (1/10, v/v) twice a week. After three days in culture, U 937 cells were centrifuged (1000×G for 10 min) and incubated for 24 hrs in RPMI 1640 medium containing 10% CPSR 1 (delipidated FCS) and 2 mM L-glutamine. Subsequently the cells were incubated in the delipidated FCS medium containing cholesterol (10-60 μg/ml), as compared with solvent alone (ethanol, 0.5% v/v, final concentration) for (2, 4 or 24 hrs).
Cyclic AMP in supernatants from cholesterol-treated and control cells, were measured by the Rianen [^125I]cAMP-RIA Kit. Briefly, cholesterol (60 μg/ml, 24 hrs) or cholesterol vehicle (ethanol) were added after 24 hrs cell incubation in delipidated FCS medium. Cells were subsequently washed three times and resuspended (5×10^6, final concentration) in Hanks Hepes (HH)-buffer, pH 7.4 with ascorbinic acid (10 mM) and cAMP-phosphodiesterase inhibitor IBMX (1 mM). Cell suspension (100 μl) was added to 400 μl of the cAMP buffer for 30 min at 20° C. […] Values are from one experiment (representative of three) expressed as pmol cAMP per 10^6 cells. Total proteins were measured by standard procedure.

[8] = biological target: T2, paf receptors on eosinophils (Homo sapiens, UniProt P25105); assay: [^3H]paf binding to intact human eosinophils; details: for specific [^3H]paf binding: 20° C., 30 min
T2 construct: endogenous in cells; host or cells: intact human blood eosinophils (about 96% pure)
T2 sequence (P25105 whole entry): as above
Experimental: Eosinophils were also prepared under sterile conditions. Blood (400 ml) was mixed with 10% (v/v) dextran. The supernatant was carefully deposited on a metrizoate/ficoll suspension (d=1.148) after sedimentation of red blood cells and centrifuged (400×g: 40 min). Erythrocyte lysis was performed by adding 3 v. of distilled water for 40 sec, followed by 1 v. NaCl (3.5%, w/v). Cells were suspended in 500 μl pH 7.4 Tyrode's buffer, centrifuged (1900 rpm×10 min) and resuspended (5×10^6 cells/ml) in Tyrode's (0.25% BSA) without Ca^2+. The eosinophils fraction at 1×10^6 cells/ml contained 96±5% eosinophils, 3±3% neutrophils, 1±2% mononuclear cells and no free platelets (mean±s.d., n=3).
as §4
Eosinophils were added to Tyrode's (0.25% BSA, 1.3 mM CaCl2, 1 mM MgCl2) containing [3H]paf (0.325-6.5 nM) in the absence or presence of unlabeled paf, lyso paf, enantio-paf or lyso-phosphatidylcholine (LPC) (5, 10, 50, 500 nM) and/or the specific paf receptor antagonist WEB 2086 (400 nM). After the binding procedure, cells were separated from their suspending medium by filtration in a millipore vacuum system with GF/C filters. Filters were washed with 10 ml Tyrode's buffer at 4° C. and radioactivity was assessed by scintillation. Cell-bound radioactivity on the filters after subtraction of blanks (filter-bound radioactivity in the absence of cells) was expressed in fmol [^3H]paf bound per 2.5×10^6 PMN or 2.5×10^5 eosinophils.

[9] = system: eosinophils; assay: cytosolic free calcium (fura-2) in eosinophils; assay type: cell-based, human; details: 1-100 nM; Ca^2+ free buffer, EGTA 2 mM
Experimental: as §1

[10] = system: lyso paf receptors on neutrophils (PMN); assay: [^3H]lyso paf binding to neutrophils (PMN); design: species or system human; details: 20° C.
Experimental: as §3
The binding of [^3H]lyso paf (0.325-0.5 nM) was measured after 30 min incubation at 20° C. in the absence or presence of an excess of unlabeled lyso paf (500 nM), paf (500 nM) or WEB 2086 (1 μM). The effect of low dose paf (5 nM) on the binding of [^3H]lyso paf was also investigated. […] After the binding procedure, cells were separated from their suspending medium by filtration in a millipore vacuum system with GF/C filters. Filters were washed with 10 ml Tyrode's buffer at 4° C. and radioactivity was assessed by scintillation. Cell-bound radioactivity on the filters after subtraction of blanks (filter-bound radioactivity in the absence of cells) was expressed in fmol [^3H]paf bound per 2.5×10^6 PMN or 2.5×10^5 eosinophils.

[11] = source of acetylhydrolase: (1) Platelets
[12] = source of acetylhydrolase: (2) Thrombin-activated platelets
[13] = source of acetylhydrolase: (3) Supernatant from (2)
[14] = source of acetylhydrolase: (4) Native plasma

With CCCCCCCCCCCCCCCCCCOC[C@H](COP(=O)([O-])OCC[N+](C)(C)C)OC(C)=O [paf, 1-octadecyl-2-acetyl-sn-glycero-3-phosphocholine] the “cytoplasmic Ca^2+ flux in response to agonist” value [1] was “concentration-dependent entry of Ca^2+”, the Km [2, 11] was 8.3 ± 1.5 µM and the Vmax [2, 11] was 0.3 nmol/min/mg prot. For the same compound, the Km [2, 12] was 10.6 ± 1.5 µM, the Vmax [2, 12] was 0.3 nmol/min/mg prot and the Km [2, 13] was 7.9 ± 1.5 µM. The Vmax [2, 13] was 1.4 nmol/min/mg prot, the Km [2, 14] was 5.3 ± 0.5 µM and the Vmax [2, 14] was 1.4 nmol/min/mg prot. For the same compound, the “concentration for maximal aggregation” value ([3]; 20° C.) was 2.6 ± 0.5 nM, the “concentration for maximal aggregation” value ([3]; 37° C.) was 5.0 ± 0.5 nM and the EC50 ([3]; 20° C.) was 0.4 ± 0.1 nM. For the same compound, the EC50 ([3]; 37° C.) was 0.9 ± 0.2 nM, the Kd ([4]; 4° C.) was 0.44 nM and the “binding sites (high affinity) on neutrophils” value ([4]; 4° C.) was 3612 binding sites. The “[^3H]paf binding” value ([4]; Add. 5 nM, WEB 2086 1 μM) was 376 ± 21 fmol [^3H]paf bound per 2.5×10^6 PMN, the “[^3H]paf binding” value ([4]; paf 5 nM, preincubation 0 min at 37° C.) was 414 fmol [^3H]paf bound per 2.5×10^6 PMN and the “[^3H]paf binding” value ([4]; paf 5 nM, preincubation 15 min at 37° C.) was 331 fmol [^3H]paf bound per 2.5×10^6 PMN. For the same compound, the “effect of excess unlabeled ligand on [^3H]paf binding” value ([4]; paf 500 nM, WEB 2086 1 μM) was “inhibited”, the “metabolism of added paf” value [5] was “did not metabolize” and the “released of the total acetylhydrolase” value ([6]; paf 500 nM, mean±S.E., n=3) was 10.3±1.5%. For the same compound, the acetylhydrolase release ([6]; stimulation 0 sec) was 1.0 ± 1.0 percentage of the total content of acetylhydrolase, the acetylhydrolase release ([6]; stimulation 15 sec) was 8.2 ± 3.2 percentage of the total content of acetylhydrolase and the acetylhydrolase release ([6]; stimulation 30 sec) was 7.8 ± 2.6 percentage of the total content of acetylhydrolase. The acetylhydrolase release ([6]; stimulation 60 sec) was 9.5 ± 4.0 percentage of the total content of acetylhydrolase, the acetylhydrolase release ([6]; stimulation 120 sec) was 10.0 ± 1.4 percentage of the total content of acetylhydrolase and the acetylhydrolase release ([6]; stimulation 180 sec) was 12.6 ± 3.8 percentage of the total content of acetylhydrolase. For the same compound, the acetylhydrolase release ([6]; stimulation 300 sec) was 10.3 ± 1.5 percentage of the total content of acetylhydrolase, the “cAMP in response to paf” value [7] was “dose dependent fall in cAMP” and the “binding sites per eosinophil” value [8] was 8.6×10^4 sites per eosinophil. For the same compound, the “specific [^3H]paf binding, maximal plateau values” ([8]; 20 hrs at 4° C., assessed with unlabeled paf 500 nM or WEB 2086 400 nM) was 14.0±9.0 fmol per 2.5×10^5 cells, the Kd ([8]; 20 hrs at 4° C., read-out: binding affinity (Kd) on eosinophils) was 5.5 nM and the “specific [^3H]paf binding” value ([8]; addition 5 nM, WEB 2086 400 nM) was 3.8 ± 5.0 fmol per 2.5×10^5 cells. For the same compound, the “specific [^3H]paf binding” value ([8]; addition 10 nM, WEB 2086 400 nM) was 4.3 ± 2.9 fmol per 2.5×10^5 cells, the “specific [^3H]paf binding” value ([8]; addition 50 nM, WEB 2086 400 nM) was 7.2 ± 5.4 fmol per 2.5×10^5 cells and the “specific [^3H]paf binding” value ([8]; addition 500 nM) was 12.5 ± 6.9 fmol per 2.5×10^5 cells. For the same compound, the “[Ca^2+]i rise in response to agonist” value [9] was “concentration-dependent elevation of [Ca^2+]i”, the “effect of unlabeled ligand on [^3H]lyso paf binding” value ([10]; excess unlabeled paf or lyso paf 500 nM, WEB 2086 1 μM) was “increased” and the “binding of […] [^3H]lyso paf” value ([10]; paf 5 nM, increased from 197.0±4.5) was 255.0±10.5 fmol per 2.5×10^6 PMN.

Reference: patent US20020127287A1, “Treatment of lyso paf-mediated disorders with lyso paf or paf antagonists and procedure for determining their efficacy” (priority 1990, published 2002)
